From patent US20230013453A1, “RESVERATROL SKIN PREPARATION” (priority 2021, published 2023)

Experiment: specification test of 98% trans-resveratrol (FIG. 5): solubility
Format: physicochemical
Conditions: extracted or sieved 98% trans-resveratrol
Text: It may be in powder form and either white or light yellow in color. […] It is also devoid of any significant amounts of metals, bacteria or other adulterants or additives.

- solubility in ethanol: soluble in ethanol
SMILES: Oc1ccc(/C=C/c2cc(O)cc(O)c2)cc1 [trans-resveratrol]
